System: SKOV-3 cells
Assay: Trypan-blue cell viability after field treatment, SKOV-3
Type: cell-based, human
Details: PTX drug +, no field, 24-hour
Description: After we confirmed that the drug-loaded MENs in the vicinity of the cancer cells indeed acted as a field-controlled valve to let the drug in (due to the effective nano-electroporation effect according to our hypothesis), we studied the viability of the cancer cells for different combinations of the drug and the carrier after the drug penetrated through the cell membrane. (Here, maintaining the remote field at 30 Oe provided the specificity to the cancer cells or, in other words, ensured that the healthy cells were intact.) The confocal images that were obtained after a 24-hour field treatment are in FIG. 13. The three key combinations of the carrier included (i) no particle, (ii) HER-2-GMO-MENs (Note: Here, HER-2 stands for the HER-2 biomarker antibody), and (iii) GMO-MENs, respectively. Accordingly, the three images (from left to right) in FIG. 13A show the morphology of the cancer cells after 24-hour treatment by (i) the free drug (with no particle carrier), (ii) drug-HER-2-GMO-MENs with no field applied, and (iii) drug-GMO-MENs in a 30-Oe d.c. field. The three control images in FIG. 13B show the morphology of the cancer cells after the 24-hour treatment by the same three combinations of the carrier with no drug present. In addition, we conducted the confocal imaging and the trypan-blue cell viability tests on both SKOV-3 and HOMEC cell lines after 24- and 36-hour field treatment. […]

Q: For `CC(=O)O[C@H]1C(=O)[C@@]2(C)[C@H]([C@H](OC(=O)c3ccccc3)[C@]3(O)C[C@H](OC(=O)[C@H](O)[C@@H](NC(=O)c4ccccc4)c4ccccc4)C(C)=C1C3(C)C)[C@]1(OC(C)=O)CO[C@@H]1C[C@@H]2O` [FREE, Paclitaxel], which “Percentage Cells Alive” value is on record?
A: 86 ± 8.8%

Source: patent publication US9895549B2, “On-demand drug release using magneto-electric nanoparticles” (priority 2012, dated 2018)
